Measured values as given in patent US12410166B2, “Sulfonylamidine substituted compounds and their use as beta-lactamase inhibitors” (NINGXIA ACADEMY OF AGRICULTURE AND FORESTRY SCIENCES, priority 2021, dated 2025).
Counter-ions that a name gives are not always drawn. Like-named read-outs stand apart in the source and are kept apart here.

Key:
Experiment in all cases: MIC by broth microdilution (antibacterial and synergistic activity)
Type in all cases: cell-based
[1] = system: P. aeruginosa clinical isolate (strain 9, KPC-2); conditions: Pseudomonas aeruginosa, read-out: Antibacterial activity, MIC, inhibitor Alone
Experimental: (§1) Compounds of the present invention alone, avibactam (AVI) alone, relebactam (REL) alone, meropenem (MER) alone, imipenem (IMI) alone, and as a combination of compounds of the present invention, or avibactam or relebactam with test antibiotic (meropenem or imipenem) was tested for antimicrobial activity by determining minimum inhibitory concentration (MIC, mg/L) using the broth microdilution method according to the guidelines of the Clinical Laboratories and Standards Institute (“Methods for Dilution Antimicrobial Susceptibility Tests for Bacterial that Grow Aerobically”, Approved standard, 7th ed., Clinical and Laboratories Standards Institute (CLSI) Document M7-A8, Wayne, Pa., USA, 2009). Meropenem or imipenem as a test antibiotic compound was dissolved in DMSO, and then diluted in microbial growth medium (Mueller-Hinton Broth II, cation adjusted) resulting in a final concentration range of 0.031-64 mg/L in serial two-fold dilution. In all cases the final DMSO concentration was less than 0.5%. Bacteria were added to 96-well microtitre plates containing the serial two-fold dilutions of the compounds; the final cell density was approximately 5×10^5 colony forming units/mL (CFU/mL). Plates were incubated at 37° C. for 18-24 hours and read visually. The MIC, i.e. the lowest concentration of the test compound that inhibited visible growth of the bacteria, was recorded. The same assay conditions were used when the compounds of present invention alone, avibactam or relebactam alone (as a control), and as a combination of the present invention each compound, or avibactam or relebactam with test meropenem or imipenem antibiotic compound was tested for minimum inhibitory concentration (MIC, mg/L). While test meropenem or imipenem was serially diluted as described above, a constant concentration of avibactam, or relebactam or the present invention each compound of 4 mg/L was used.
(§2) Bacterial strains that were used to evaluate the antimicrobial activity using the MIC determination included but were not limited to E. coli clinical isolate (strain 1, TEM-1), E. coli 8739 (strain 2, CTX-M15), K. pneumoniae clinical isolate (strain 3, SHV-1), K. pneumoniae 700603 (strain 4, KPC-3, TEM-1), E. cloacae clinical isolate (strain 5, P99), E. cloacae 700323 (strain 6, AmpC), A. baumannii clinical isolate (strain 7, OXA-23, OXA-40), A. baumannii 19606 (strain 8, OXA-24), P. aeruginosa clinical isolate (strain 9, KPC-2), P. aeruginosa 9027 (strain 10, AmpC).

[2] = system: P. aeruginosa 9027 (strain 10, AmpC); conditions: Pseudomonas aeruginosa, read-out: Antibacterial activity, MIC, inhibitor Alone
Experimental: as §1, §2

[3] = system: A. baumannii 19606 (strain 8, OXA-24); conditions: Acinetobacter baumannii, read-out: Antibacterial activity, MIC, inhibitor Alone
Experimental: as §1, §2

[4] = system: E. cloacae 700323 (strain 6, AmpC); conditions: Enterobacter cloacae, read-out: Antibacterial activity, MIC, inhibitor Alone
Experimental: as §1, §2

[5] = system: E. cloacae clinical isolate (strain 5, P99); conditions: Enterobacter cloacae, read-out: Antibacterial activity, MIC, inhibitor Alone
Experimental: as §1, §2

[6] = system: E. coli 8739 (strain 2, CTX-M15); conditions: Escherichia coli, read-out: Antibacterial activity, MIC, inhibitor Alone
Experimental: as §1, §2

[7] = system: E. coli clinical isolate (strain 1, TEM-1); conditions: Escherichia coli, read-out: Antibacterial activity, MIC, inhibitor Alone
Experimental: as §1, §2

[8] = system: K. pneumoniae clinical isolate (strain 3, SHV-1); conditions: Klebsiella pneumoniae, read-out: Antibacterial activity, MIC, inhibitor Alone
Experimental: as §1, §2

[9] = system: A. baumannii clinical isolate (strain 7, OXA-23, OXA-40); conditions: Acinetobacter baumannii, read-out: Antibacterial activity, MIC, inhibitor Alone
Experimental: as §1, §2

[10] = system: K. pneumoniae 700603 (strain 4, KPC-3, TEM-1); conditions: Klebsiella pneumoniae, read-out: Antibacterial activity, MIC, inhibitor Alone
Experimental: as §1, §2

[11] = strain 9 (KPC-2), compound alone, no antibiotic
[12] = strain 10 (AmpC), compound alone, no antibiotic
[13] = strain 6 (AmpC), compound alone, no antibiotic
[14] = strain 5 (P99), compound alone, no antibiotic
[15] = strain 1 (TEM-1), compound alone, no antibiotic
[16] = strain 3 (SHV-1), compound alone, no antibiotic
[17] = strain 7 (OXA-23/40), compound alone, no antibiotic
[18] = strain 4 (KPC-3, TEM-1), compound alone, no antibiotic

Measured: MIC

COC(=O)CCS(=O)(=O)NC(=N)[C@@H]1CC[C@@H]2CN1C(=O)N2OS(=O)(=O)[O-].[Na+] [Ex. 4, Sodium (2S,5R)-2-(N-((3-methoxy-3-oxopropyl)sulfonyl)carbamimidoyl)-7-oxo-1,6-diazabicyclo[3.2.1]octan-6-ylsulfate]
> 64 µg/mL: [1] | [2] | [3] | [4] | [5] | [6] | [7] | [8] | [9] | [10]

CS(=O)(=O)NC(=N)[C@@H]1CC[C@@H]2CN1C(=O)N2OS(=O)(=O)[O-].[Na+] [Ex. 5, Sodium (2S,5R)-2-(N-(methylsulfonyl)carbamimidoyl)-7-oxo-1,6-diazabicyclo[3.2.1]octan-6-yl sulfate]
> 64 µg/mL: [1]; [11] | [2]; [12] | [3] | [4]; [13] | [5]; [14] | [6] | [7]; [15] | [8]; [16] | [9]; [17] | [10]; [18]

N=C(NS(=O)(=O)C1CC1)[C@@H]1CC[C@@H]2CN1C(=O)N2OS(=O)(=O)[O-].[Na+] [Ex. 6, Sodium (2S,5R)-2-(N-(cyclopropylsulfonyl)carbamimidoyl)-7-oxo-1,6-diazabicyclo[3.2.1]octan-6-yl sulfate]
> 64 µg/mL: [1]; [11] | [2]; [12] | [3] | [4]; [13] | [5]; [14] | [6] | [7]; [15] | [8]; [16] | [9]; [17] | [10]; [18]

CCS(=O)(=O)NC(=N)[C@@H]1CC[C@@H]2CN1C(=O)N2OS(=O)(=O)[O-].[Na+] [Ex. 8, Sodium (2S,5R)-2-(N-(ethylsulfonyl)carbamimidoyl)-7-oxo-1,6-diazabicyclo[3.2.1]octan-6-yl sulfate]
> 64 µg/mL: [1]; [11] | [2]; [12] | [3] | [4]; [13] | [5]; [14] | [6] | [7]; [15] | [8]; [16] | [9]; [17] | [10]; [18]

Cc1ccc(S(=O)(=O)NC(=N)[C@@H]2CC[C@@H]3CN2C(=O)N3OS(=O)(=O)[O-])cc1.[Na+] [Ex. 9, Sodium (2S,5R)-7-oxo-2-(N-tosylcarbamimidoyl)-1,6-diazabicyclo[3.2.1]octan-6-yl sulfate]
> 64 µg/mL: [1]; [11] | [2]; [12] | [3] | [4]; [13] | [5]; [14] | [6] | [7]; [15] | [8]; [16] | [9]; [17] | [10]; [18]

N=C(NS(=O)(=O)c1ccccn1)[C@@H]1CC[C@@H]2CN1C(=O)N2OS(=O)(=O)O [Ex. 12, (2S,5R)-7-Oxo-2-(N-(pyridin-2-ylsulfonyl)carbamimidoyl)-1,6-diazabicyclo[3.2.1]octan-6-yl hydrogen sulfate]
> 64 µg/mL: [1]; [11] | [2]; [12] | [3] | [4]; [13] | [5]; [14] | [6] | [7]; [15] | [8]; [16] | [9]; [17] | [10]; [18]

N=C(NS(=O)(=O)c1cccnc1)[C@@H]1CC[C@@H]2CN1C(=O)N2OS(=O)(=O)[O-].[Na+] [Ex. 13, Sodium (2S,5R)-7-oxo-2-(N-(pyridin-3-ylsulfonyl)carbamimidoyl)-1,6-diazabicyclo[3.2.1]octan-6-yl sulfate]
> 64 µg/mL: [1]; [11] | [2]; [12] | [3] | [4]; [13] | [5]; [14] | [6] | [7]; [15] | [8]; [16] | [9]; [17] | [10]; [18]

N=C(NS(=O)(=O)C(F)(F)F)[C@@H]1CC[C@@H]2CN1C(=O)N2OS(=O)(=O)O [Ex. 14, (2S,5R)-7-oxo-2-(N-((trifluoromethyl)sulfonyl)carbamimidoyl)-1,6-diazabicyclo[3.2.1]octan-6-yl hydrogen sulfate]
> 64 µg/mL: [1]; [11] | [2]; [12] | [3] | [4]; [13] | [5]; [14] | [6] | [7]; [15] | [8]; [16] | [9]; [17] | [10]; [18]

N=C(NS(=O)(=O)N1CCC1)[C@@H]1CC[C@@H]2CN1C(=O)N2OS(=O)(=O)O [Ex. 15, (2S,5R)-2-(N-(azetidin-1-ylsulfonyl)carbamimidoyl)-7-oxo-1,6-diazabicyclo[3.2.1]octan-6-yl hydrogen sulfate]
> 64 µg/mL: [1] | [2] | [3] | [4] | [5] | [6] | [7] | [8] | [9] | [10]

N=C(NS(N)(=O)=O)[C@@H]1CC[C@@H]2CN1C(=O)N2OS(=O)(=O)O [Ex. 16, (2S,5R)-7-oxo-2-(N-Sulfamoylcarbamimidoyl)-1,6-diazabicyclo[3.2.1]octan-6-yl hydrogen sulfate]
> 64 µg/mL: [1]; [11] | [2]; [12] | [3] | [4]; [13] | [5]; [14] | [6] | [7]; [15] | [8]; [16] | [9]; [17] | [10]; [18]

CNS(=O)(=O)NC(=N)[C@@H]1CC[C@@H]2CN1C(=O)N2OS(=O)(=O)O [Ex. 17, (2S,5R)-2-(N—(N-Methylsulfamoyl)carbamimidoyl)-7-oxo-1,6-diazabicyclo[3.2.1]octan-6-yl hydrogen sulfate]
> 64 µg/mL: [1] | [2] | [3] | [4] | [5] | [6] | [7] | [8] | [9] | [10]

CCNS(=O)(=O)NC(=N)[C@@H]1CC[C@@H]2CN1C(=O)N2OS(=O)(=O)O [Ex. 18, (2S,5R)-2-(N—(N-Ethylsulfamoyl)carbamimidoyl)-7-oxo-1,6-diazabicyclo[3.2.1]octan-6-yl hydrogen sulfate]
> 64 µg/mL: [1]; [11] | [2]; [12] | [3] | [4]; [13] | [5]; [14] | [6] | [7]; [15] | [8]; [16] | [9]; [17] | [10]; [18]

Cn1ccnc1S(=O)(=O)NC(=N)[C@@H]1CC[C@@H]2CN1C(=O)N2OS(=O)(=O)O [Ex. 19, (2S,5R)-2-(N-((1-methyl-1H-imidazol-2-yl)sulfonyl)carbamimidoyl)-7-oxo-1,6-diazabicyclo[3.2.1]octan-6-yl hydrogen sulfate]
> 64 µg/mL: [1]; [11] | [2]; [12] | [3] | [4]; [13] | [5]; [14] | [6] | [7]; [15] | [8]; [16] | [9]; [17] | [10]; [18]
